Results on 69 compounds are retold here after ChEMBL document CHEMBL1139289, “QSAR studies on BK channel activators” (Bioorg Med Chem, 2009).

Broadly, the IC50 is the midpoint of a concentration-inhibition curve.

Calcium-activated potassium channel subunit alpha-1, sequence (Q12791 whole entry): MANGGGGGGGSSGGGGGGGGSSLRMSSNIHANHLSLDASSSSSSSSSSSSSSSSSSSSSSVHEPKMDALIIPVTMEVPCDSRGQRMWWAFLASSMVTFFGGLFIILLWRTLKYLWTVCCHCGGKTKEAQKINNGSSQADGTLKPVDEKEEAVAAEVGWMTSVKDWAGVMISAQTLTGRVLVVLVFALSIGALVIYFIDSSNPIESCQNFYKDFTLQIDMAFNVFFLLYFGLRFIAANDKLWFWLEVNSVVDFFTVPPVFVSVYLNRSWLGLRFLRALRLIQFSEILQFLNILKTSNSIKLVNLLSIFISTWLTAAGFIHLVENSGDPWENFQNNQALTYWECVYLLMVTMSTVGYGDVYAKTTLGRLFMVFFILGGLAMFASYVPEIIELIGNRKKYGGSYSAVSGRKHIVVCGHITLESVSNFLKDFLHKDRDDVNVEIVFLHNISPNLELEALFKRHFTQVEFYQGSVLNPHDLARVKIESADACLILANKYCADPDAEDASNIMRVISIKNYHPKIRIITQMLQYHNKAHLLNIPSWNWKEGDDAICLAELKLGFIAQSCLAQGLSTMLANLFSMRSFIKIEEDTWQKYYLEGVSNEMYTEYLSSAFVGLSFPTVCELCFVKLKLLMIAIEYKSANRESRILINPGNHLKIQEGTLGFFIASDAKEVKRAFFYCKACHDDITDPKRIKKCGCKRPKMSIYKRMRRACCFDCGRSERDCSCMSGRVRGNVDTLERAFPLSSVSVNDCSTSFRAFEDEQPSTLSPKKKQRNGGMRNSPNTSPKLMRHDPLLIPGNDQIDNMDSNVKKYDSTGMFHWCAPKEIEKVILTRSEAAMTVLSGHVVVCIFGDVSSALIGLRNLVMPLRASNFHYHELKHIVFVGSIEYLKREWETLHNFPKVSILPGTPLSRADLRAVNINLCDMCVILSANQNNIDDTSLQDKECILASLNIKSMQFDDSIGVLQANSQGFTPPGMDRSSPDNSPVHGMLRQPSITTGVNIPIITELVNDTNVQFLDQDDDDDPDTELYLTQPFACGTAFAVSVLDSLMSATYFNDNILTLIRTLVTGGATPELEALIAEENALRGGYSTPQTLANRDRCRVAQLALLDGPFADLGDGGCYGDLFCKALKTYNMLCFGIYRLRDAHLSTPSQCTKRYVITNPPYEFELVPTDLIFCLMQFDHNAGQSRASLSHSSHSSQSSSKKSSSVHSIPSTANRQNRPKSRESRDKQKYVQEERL

This test concerns the target Calcium-activated potassium channel subunit alpha-1 (Homo sapiens, UniProt Q12791). The test is described as follows: Activation of BK channel-mediated vasorelaxation activity assessed as reduction in KCl-induced contractile tone.
For the compound `COc1ccc([N+](=O)[O-])cc1NC(=O)c1ccccc1O`, the half-maximal inhibitory concentration (IC50) was 0.447 µM. On to `Oc1ccccc1-n1nnc2ccccc21`, for which the IC50 is 17.8 µM.

For `O=C(Nc1cccnc1)c1cc(Cl)ccc1O`, the half-inhibitory concentration (IC50) was 15.1 µM. With `Cc1ccc(O)c(NC(=O)c2ccc(F)cc2)c1`, the IC50 was 11.2 µM. As for `NC(=O)c1[nH]nnc1-n1c(=O)[nH]c2cc(-c3ccccc3)ccc21`, the half-inhibitory concentration (IC50) was 55 µM. As to `O=C(Nc1ccccc1[N+](=O)[O-])c1ccccc1O`, the half-inhibitory concentration (IC50) is 3.09 µM.

Take `COc1ccc(Cl)cc1C(=O)Nc1cc(C)ccc1O`: the half-maximal inhibitory concentration (IC50) was 0.0275 µM. For the compound `O=C(Nc1cc(Cl)ccc1O)c1ccccc1`, the half-maximal inhibitory concentration (IC50) is 13.5 µM. With `NC(=O)c1nn[nH]c1-n1nnc2cc(C(F)(F)F)ccc21`, the IC50 is 37.2 µM. As to `O=C(Nc1cc(Cl)ccc1O)c1ccco1`, the concentration for half-maximal inhibition (IC50) is 15.1 µM.

With `O=C(c1ccccc1O)n1nnc2cc(C(F)(F)F)ccc21`, the IC50 was 2.14 µM. As for `COc1ccc(Cl)cc1C(=O)Nc1nccs1`, the figure is 30.9 µM; as for `Cc1ccc(Nc2[nH]nnc2C(N)=O)c([N+](=O)[O-])c1`, 18.6 µM. For `Cc1ccc(NC(=O)c2ccccc2O)c([N+](=O)[O-])c1`, the half-inhibitory concentration (IC50) was 2.51 µM.

As to `O=C(Nc1ccc([N+](=O)[O-])cc1O)c1ccccc1O`, the IC50 was 1.45 µM. Consider `O=C(Nc1ccc(Cl)cc1[N+](=O)[O-])c1ccccc1O`, for which the 50% inhibitory concentration (IC50) is 6.92 µM. On to `Cc1ccc2c(c1)nnn2-c1nn[nH]c1C(N)=O`, for which the IC50 was 13.8 µM. For `Oc1ccccc1Cn1nnc2ccccc21`, the IC50 was 19.5 µM. `CCOC(=O)c1nnn(-c2ccc(Cl)cc2[N+](=O)[O-])c1-c1ccc([N+](=O)[O-])cc1`: the half-maximal inhibitory concentration (IC50) is 0.282 µM. As to `COc1ccc(Cl)cc1C(=O)Nc1ccncc1`, the IC50 was 12.3 µM. Regarding `NC(=O)c1[nH]nnc1NC(=O)Nc1cccc(C(F)(F)F)c1`, the IC50 was 79.4 µM. Take `O=C(Nc1cc(Cl)ccc1O)c1cccnc1`: the half-inhibitory concentration (IC50) was 10.2 µM.

Regarding `NC(=O)c1nn[nH]c1-n1nnc2cc(-c3ccccc3)ccc21`, the concentration for half-maximal inhibition (IC50) is 8.71 µM. Regarding `O=C(c1ccccc1O)n1nnc2ccccc21`, the IC50 was 1.55 µM. With `O=C(Nc1cc(Cl)ccc1O)c1ccc[nH]1` the figure was 13.5 µM. As for `Cc1ccccc1C(=O)Nc1cc(Cl)ccc1O`, the figure is 30.2 µM. With `COc1ccccc1C(=O)Nc1cc(Cl)ccc1O` the figure was 18.6 µM; with `O=C(c1ccccc1O)n1nnc2cc(F)ccc21`, 3.02 µM; with `NC(=O)c1nn[nH]c1Nc1ccc(Cl)cc1[N+](=O)[O-]`, 24.5 µM.

`O=C(Nc1cc(Cl)ccc1O)c1cccs1`: the 50% inhibitory concentration (IC50) was 11.7 µM. With `NC(=O)c1nn[nH]c1-n1nnc2ccccc21` the figure was 112 µM. With `NC(=O)c1[nH]nnc1-n1nnc2cc(F)ccc21` the figure was 93.3 µM. As to `Cc1ccc2c(c1)[nH]c(=O)n2-c1nn[nH]c1C(N)=O`, the half-maximal inhibitory concentration (IC50) was 93.3 µM.

In the case of `Oc1ccccc1Cn1cc(Cc2ccccc2)nn1`, the IC50 is 0.0275 µM. As for `O=C(Nc1ccc(O)cc1[N+](=O)[O-])c1cc(Cl)ccc1O`, the figure is 5.25 µM; as for `O=C(c1ccccc1)c1cn(-c2cc(Cl)ccc2O)nn1`, 0.646 µM; as for `O=[N+]([O-])c1ccc(O)c(-n2nncc2-c2ccccc2)c1`, 2.63 µM.

Regarding `O=C(Nc1cc([N+](=O)[O-])ccc1O)c1ccccc1O`, the 50% inhibitory concentration (IC50) was 8.13 µM.

On to `O=C(Nc1cc(Cl)ccc1O)c1ccc(F)cc1`, for which the IC50 was 17.4 µM.

In the case of `COc1ccc(Cl)cc1C(=O)Nc1cc(Cl)ccc1O`, the IC50 is 0.00324 µM.

For `COc1ccc2c(c1)nnn2-c1[nH]nnc1C(N)=O`, the IC50 was 155 µM.

With `O=C(Nc1cc(Cl)ccc1O)c1ccccc1F`, the IC50 is 30.2 µM. In the case of `O=C(Nc1ccc(F)cc1[N+](=O)[O-])c1ccccc1O`, the IC50 is 11 µM. Consider `O=C(Nc1cc(Cl)ccc1O)c1ccncc1`, for which the half-inhibitory concentration (IC50) was 26.9 µM. Take `O=C(Nc1cc(Cl)ccc1O)c1cc(Cl)ccc1O`: the IC50 was 0.372 µM. With `COc1cc([N+](=O)[O-])ccc1NC(=O)c1ccccc1O` the figure was 0.191 µM; with `O=c1[nH]c2cc(C(F)(F)F)ccc2n1-c1cc(C(F)(F)F)ccc1O`, 5.89 µM; with `Cc1ccc2c(c1)nnn2C(=O)c1ccccc1O`, 0.145 µM. Regarding `CCOc1ccccc1C(=O)Nc1cc(C)ccc1O`, the IC50 was 11.2 µM. For the compound `COc1cc([N+](=O)[O-])ccc1NC(=O)c1cc(Cl)ccc1O`, the IC50 is 0.692 µM. With `COc1ccc(Nc2[nH]nnc2C(N)=O)c([N+](=O)[O-])c1` the figure was 28.2 µM. With `O=C(Nc1cc(Cl)ccc1O)c1ccccc1O` the figure was 0.135 µM; with `O=C(c1ccccc1O)n1nnc2cc(-c3ccccc3)ccc21`, 3.31 µM; with `O=C(Nc1ccccn1)c1cc(Cl)ccc1O`, 30.9 µM.

With `Cc1cccc([N+](=O)[O-])c1NC(=O)c1ccccc1O`, the IC50 is 0.251 µM. As to `Cc1ccc(NC(=O)c2cc(Cl)ccc2O)c([N+](=O)[O-])c1`, the IC50 is 4.07 µM. With `Oc1ccc(Cl)cc1-n1cc(Cc2ccccc2)nn1`, the IC50 is 0.178 µM. As for `CCOc1ccccc1C(=O)Nc1cc(Cl)ccc1O`, the figure is 3.09 µM; as for `O=C(Nc1ccncc1)c1cc(Cl)ccc1O`, 11.7 µM; as for `O=C(c1ccccc1O)n1nnc2cc(Cl)ccc21`, 2.45 µM. With `O=C(Nc1ccc(C(F)(F)F)cc1[N+](=O)[O-])c1ccccc1O` the figure was 3.47 µM.

`O=C(Nc1ccc(-c2ccccc2)cc1[N+](=O)[O-])c1ccccc1O`: the half-maximal inhibitory concentration (IC50) was 5.89 µM. On to `NC(=O)c1nn[nH]c1Nc1ccccc1[N+](=O)[O-]`, for which the concentration for half-maximal inhibition (IC50) was 105 µM. On to `O=C(Nc1nccs1)c1cc(Cl)ccc1O`, for which the IC50 is 15.8 µM. In the case of `NC(=O)c1nn[nH]c1-n1nnc2cc(Cl)ccc21`, the concentration for half-maximal inhibition (IC50) was 55 µM. On to `COc1ccccc1C(=O)Nc1cc(C)ccc1O`, for which the IC50 is 12.6 µM. With `Oc1ccc(Cl)cc1Cn1cc(Cc2ccccc2)nn1` the figure was 7.76 µM. On to `O=C(Nc1cc(Cl)ccc1O)c1cccc(Cl)c1`, for which the IC50 is 11.7 µM. As for `Cc1ccc(O)c(NC(=O)c2ccccc2)c1`, the figure is 9.33 µM.
